We go through seven molecules from US20160272713A1, “Fibrosis Inhibiting Compounds and Methods of Use Thereof in the Prevention or Treatment of Fibrosing Diseases” (priority 2013, published 2016).

Some results are limits rather than exact numbers.

The test system of one test is C57/BL6 mice. The experiment in a line: bleomycin-induced pulmonary fibrosis in mice. It counts as in vivo. On the procedure:
To determine the effects of compound 1 in treatment of a fibrosing disease, pulmonary fibrosis was selected as a model. Pulmonary fibrosis was induced in C57/BL6 mice by oropharyngeal aspiration of bleomycin into their lungs. 24 hour after bleomycin administration, mice received daily intraperitoneal injections of compound 1. At day 21 mice were euthanized and the bronchoalveolar lavage fluid (BAL) and the lungs were harvested.
The successful aspiration of bleomycin into the lungs was confirmed by listening for the crackling noise heard after the aspiration. Starting 24 hours following bleomycin aspiration (day 1), mice were treated daily with intraperitoneal injections of 50 microliters of PBS containing 2 microliters of 1 mg/ml of compound 1 (ChemBridge Corporation, San Diego, Calif.) (0.1 mg/kg) dissolved in DMSO (SigmaAldrich), 2 microliters of 0.1 mg/ml of compound 1 (0.01 mg/kg) dissolved in DMSO, 2 microliters of 0.01 mg/ml of compound 1 (0.001 mg/kg) dissolved in DMSO, or an equal volume of PBS containing 2 microliters of DMSO. All animals were used in accordance with rules published by the National Institutes of Health and with a protocol approved by the Texas A&M University Institutional Animal Care and Use Committee. Mice were weighed daily, and euthanized using CO2 following NIH guidelines at day 21 after bleomycin aspiration. No injections were done on day 21. […] The BAL cells from the first BAL collection were collected by centrifugation at 500×g for 10 minutes, and the supernatants were transferred to Eppendorf tubes. The supernatants were flash frozen with liquid nitrogen, and stored at −20° C. until further use. The BAL pellets were resuspended in the secondary and tertiary BAL fluid and the combined cells were collected by centrifugation at 500×g for 5 minutes. The cells were resuspended in 500 microliters of 4% (w/v) BSA-PBS and counted with a hemocytometer. 100 microliters of diluted cells were then aliquoted into cytospin funnels and were then spun onto glass slides (Superfrost plus white slides, VWR) at 400×g for 5 minutes using a cytospin centrifuge (Shandon, Cheshire, England). These cells were then air-dried, and stained for CD11b (Biolegend) or CD11c (MBL International, Woburn, Mass.) as described below.
After collection of BAL fluid, mouse lungs were inflated with prewarmed OCT (VWR, Radnor, Pa.) and then embedded in OCT, frozen on dry ice, and then stored at −80° C. 6-micron cryosections of mouse lung were mounted on Superfrost Plus microscope slides (VWR). Sections were fixed in acetone for 20 min at room temperature. […] After washing, the biotinylated antibodies were detected by streptavidin-alkaline phosphatase (Vector Laboratories) following the manufacturer's protocol. […]

Test [1] relates to fibrocyte formation from human PBMCs. The experiment in a line: fibrocyte formation (differentiation) assay with PBMCs in serum-free medium. In kind it is cell-based. As to conditions: for IC50: PBMC, read-out: IC50 of inhibition of fibrocyte formation; for effect on fibrocyte formation / differentiation (in words): counts normalized to control; for concentration at which fibrocyte formation was significantly inhibited: p<0.05 (t-test). The text has this: (§1) Human blood was collected into heparin tubes (BD Bioscience, San Jose, Calif.) from adult volunteers who gave written consent and with specific approval from the Texas A&M University human subjects Institutional Review Board. PBMCs were then isolated as previously described in Pilling, D. et al., Improved serum-free culture conditions for differentiation of human and murine fibrocytes, Journal of Immunology Methods 351:62-70 (2009), incorporated in material part by reference herein. Alamar Blue (Life Technologies, Grand Island, N.Y.) was used to assess cell viability following the manufacturer's protocol. Fibrocyte differentiation assays in the presence of different compounds were performed in serum-free medium as described in Pilling, D. et al., Improved serum-free culture conditions for differentiation of human and murine fibrocytes, Journal of Immunology Methods 351:62-70 (2009) which is incorporated in material part by reference herein. Macrophage polarization assays to detect formation of proinflammatory macrophages with an M1 phenotype were carried out in serum-free medium, in which case monocytes were left to differentiate to macrophages for 5 days and then the medium was replaced with fresh medium containing 3 microgram/ml of the tested protein.

In another test the test system is macrophages. Description: macrophage polarization assay (M1 marker ICAM-1, M2 marker CD163). In kind it is cell-based, human. As to conditions: 3 microgram/ml protein.
Text: as §1
Macrophage staining with anti-CD163 and anti-ICAM-1 antibodies was carried out as described in Pilling, D. et al., Identification of markers that distinguish monocyte-derived fibrocytes from monocytes, macrophages, and fibroblasts, PloS one 10:e7475 (2009) which is incorporated in material part by reference herein. Both primary antibodies were used at a concentration of 5 microgram/ml.

Where [2] appears, read: 0.1, 0.01 and 0.001 mg/kg daily intraperitoneal, day 21.

Turning to `CCC(=O)Nc1nc(C)c(-c2csc(Nc3ccc(N(C)C)cc3)n2)s1` [Compound 1], in the test with C57/BL6 mice (setting [2]), the “CD11b positive inflammatory macrophages in the BAL vs bleomycin control” value is reported as “significantly decreased” and the “collagen in the lungs (picrosirius red) vs bleomycin alone” value is reported as “significantly less collagen in the lungs”. For the same molecule, the “number of CD11b positive inflammatory macrophages in the lung sections” value in the test with C57/BL6 mice (0.1 and 0.01 mg/kg daily intraperitoneal, day 21, after BAL) is “significantly decreased”. The “CD11c positive macrophages in the BAL” value with C57/BL6 mice (daily intraperitoneal injections, day 21) is “not altered significantly”. The IC50 in test [1] was 3.1 pM.

Take `CCCOC(=O)c1ccc(-c2ccc(C=C3C(=O)N(c4ccc(S(N)(=O)=O)cc4)N=C3C(F)(F)F)o2)cc1` [Compound 2]: in test [1], the IC50 worked out at 330 pM.

As to `COC(=O)c1ccc(-c2ccc(C=C3C(=O)N(c4ccc(S(N)(=O)=O)cc4)N=C3C(F)(F)F)o2)cc1` [Compound 3], in test [1], the IC50 is 2200 pM and the “effect on fibrocyte formation / differentiation (in words)” value is reported as “significantly inhibited fibrocyte formation at all tested concentrations”.

With “SAP NA: enzymatically (neuraminidase) desialylated SAP lacking the terminal sialic acids”, in the test with macrophages, the “expression of the M1 marker ICAM-1” value is given as “increased the expression of the M1 marker ICAM-1” and the “expression of the M2 marker CD163” value is “did not”. In addition, the “effect on fibrocyte formation / differentiation (in words)” value in test [1] is “reduced inhibitory effect on fibrocyte differentiation”.

Turning to “SAP: Serum amyloid P, 125 kDa pentameric pentraxin protein”, in the test on macrophages, the “expression of the M1 marker ICAM-1” value is given as “did not cause such an increase” and the “expression of the M2 marker CD163” value is on record as “increased the expression of the M2 marker CD 163”. For the same molecule, in test [1], the “concentration at which fibrocyte formation was significantly inhibited” value is on record as ≥ 0.25 microgram/ml.

B1: CRP A32N: CRP glycosylated by mutating its 32nd amino acid from alanine to asparagine (protein, UniProt P02741 19-224, looked up, variant A32N)
C-reactive protein: QTDMSRKAFVFPKESDTSYVSLKAPLTKPLKNFTVCLHFYTELSSTRGYSIFSYATKRQDNEILIFWSKDIGYSFTVGGSEILFEVPEVTVAPVHICTSWESASGIVEFWVDGKPRVRKSLKKGYTVGAEASIILGQEQDSFGGNFEGSQSLVGDIGNVNMWDFVLSPDEINTIYLGGPFSPNVLNWRALKYEVQGEVFTKPQLWP
Take B1: in the test on macrophages, the “expression of the M1 marker ICAM-1” value is “did not cause such an increase” and the “expression of the M2 marker CD163” value was “increased the expression of the M2 marker CD 163”. Besides, in test [1], the “effect on fibrocyte formation / differentiation (in words)” value was “able to inhibit fibrocyte formation, although not as well as SAP” and the “concentration at which fibrocyte formation was significantly inhibited” value was ≥ 1 microgram/ml.

B2: CRP: C-reactive protein, 51% sequence identity with SAP (protein, UniProt P02741 19-224, looked up)
C-reactive protein: QTDMSRKAFVFPKESDTSYVSLKAPLTKPLKAFTVCLHFYTELSSTRGYSIFSYATKRQDNEILIFWSKDIGYSFTVGGSEILFEVPEVTVAPVHICTSWESASGIVEFWVDGKPRVRKSLKKGYTVGAEASIILGQEQDSFGGNFEGSQSLVGDIGNVNMWDFVLSPDEINTIYLGGPFSPNVLNWRALKYEVQGEVFTKPQLWP
Consider B2, for which, in the test with macrophages, the “expression of the M1 marker ICAM-1” value is “increased the expression of the M1 marker ICAM-1” and the “expression of the M2 marker CD163” value was “did not”.
